Results from US12162858B2, “Quinoline derivatives as inhibitors of AXL/MER RTK and CSF1R” (QURIENT CO., LTD., priority 2018, dated 2024).

Columns and labels:
Format in all cases: cell-based
[1] = molecular target: T1, Axl (Ba/F3 cells) (Homo sapiens, UniProt P30530); assay: BaF3 viability assay, Axl-dependent cells; conditions: read-out: Cellular Axl activity by Ba/F3 assay (IC50)
T1 sequence (P30530 1-894): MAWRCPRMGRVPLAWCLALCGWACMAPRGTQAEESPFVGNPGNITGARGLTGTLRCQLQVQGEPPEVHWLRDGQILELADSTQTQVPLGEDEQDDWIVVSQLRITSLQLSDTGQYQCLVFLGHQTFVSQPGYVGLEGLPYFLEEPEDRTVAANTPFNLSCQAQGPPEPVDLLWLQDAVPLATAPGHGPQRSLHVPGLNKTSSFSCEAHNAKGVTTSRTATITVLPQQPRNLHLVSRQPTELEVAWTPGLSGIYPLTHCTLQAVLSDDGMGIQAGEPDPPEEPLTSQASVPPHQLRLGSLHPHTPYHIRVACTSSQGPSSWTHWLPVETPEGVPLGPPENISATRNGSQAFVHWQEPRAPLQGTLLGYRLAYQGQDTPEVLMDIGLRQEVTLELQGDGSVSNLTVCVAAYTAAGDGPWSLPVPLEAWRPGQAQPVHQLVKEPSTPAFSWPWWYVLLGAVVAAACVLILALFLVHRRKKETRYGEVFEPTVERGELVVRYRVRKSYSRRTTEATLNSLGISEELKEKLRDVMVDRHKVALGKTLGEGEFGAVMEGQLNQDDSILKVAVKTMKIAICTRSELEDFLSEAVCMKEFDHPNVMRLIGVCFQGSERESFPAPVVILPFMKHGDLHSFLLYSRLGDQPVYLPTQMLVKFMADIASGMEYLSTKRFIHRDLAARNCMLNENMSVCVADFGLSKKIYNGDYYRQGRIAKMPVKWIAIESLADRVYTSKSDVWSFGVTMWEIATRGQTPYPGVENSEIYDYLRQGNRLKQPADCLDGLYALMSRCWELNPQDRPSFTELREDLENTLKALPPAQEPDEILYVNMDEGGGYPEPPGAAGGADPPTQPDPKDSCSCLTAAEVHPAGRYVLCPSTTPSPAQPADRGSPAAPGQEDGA
Text: (§1) In this system, IL-3-dependent Ba/F3 cells are modified to express an activated recombinant kinase (in the present case Axl, Mer and CSF1R). Following removal of IL-3, the modified cells are dependent on the activity of the recombinant kinase for survival and proliferation. Inhibition of such kinase(s) through test compounds reduces survival and proliferation of the cells.
(§2) Cell lines were maintained in growth media (GM) consisting of RPMI 1640 supplemented with 10% FBS. Cells in logarithmic-phase growth were harvested and 5,000 cells were distributed into each well of a 384-well plate in 50 μl GM. Parental cells (or experimental assays where specified) were further supplemented with 2 ng/ml IL-3 to support cell growth and survival. Fifty nanoliters of the indicated reference standard or experimental compound were added to appropriate wells (in duplicate) and the cells were cultured for 48 h at 37° C./5% CO2. Viability was determined by adding 10 μl Cell Titer Glo and measuring luminescence, which is reported as relative light units (RLU) measured in counts per second. The following calculations and formulas are used for data analysis using GraphPad Prism software: The curve fitting was made using the Dose response curves-Inhibition.

[2] = molecular target: T2, Mer (Ba/F3 cells) (Homo sapiens, UniProt Q12866); assay: BaF3 viability assay, Mer-dependent cells; conditions: read-out: Cellular Mer activity by Ba/F3 assay (IC50)
T2 sequence (Q12866 1-999): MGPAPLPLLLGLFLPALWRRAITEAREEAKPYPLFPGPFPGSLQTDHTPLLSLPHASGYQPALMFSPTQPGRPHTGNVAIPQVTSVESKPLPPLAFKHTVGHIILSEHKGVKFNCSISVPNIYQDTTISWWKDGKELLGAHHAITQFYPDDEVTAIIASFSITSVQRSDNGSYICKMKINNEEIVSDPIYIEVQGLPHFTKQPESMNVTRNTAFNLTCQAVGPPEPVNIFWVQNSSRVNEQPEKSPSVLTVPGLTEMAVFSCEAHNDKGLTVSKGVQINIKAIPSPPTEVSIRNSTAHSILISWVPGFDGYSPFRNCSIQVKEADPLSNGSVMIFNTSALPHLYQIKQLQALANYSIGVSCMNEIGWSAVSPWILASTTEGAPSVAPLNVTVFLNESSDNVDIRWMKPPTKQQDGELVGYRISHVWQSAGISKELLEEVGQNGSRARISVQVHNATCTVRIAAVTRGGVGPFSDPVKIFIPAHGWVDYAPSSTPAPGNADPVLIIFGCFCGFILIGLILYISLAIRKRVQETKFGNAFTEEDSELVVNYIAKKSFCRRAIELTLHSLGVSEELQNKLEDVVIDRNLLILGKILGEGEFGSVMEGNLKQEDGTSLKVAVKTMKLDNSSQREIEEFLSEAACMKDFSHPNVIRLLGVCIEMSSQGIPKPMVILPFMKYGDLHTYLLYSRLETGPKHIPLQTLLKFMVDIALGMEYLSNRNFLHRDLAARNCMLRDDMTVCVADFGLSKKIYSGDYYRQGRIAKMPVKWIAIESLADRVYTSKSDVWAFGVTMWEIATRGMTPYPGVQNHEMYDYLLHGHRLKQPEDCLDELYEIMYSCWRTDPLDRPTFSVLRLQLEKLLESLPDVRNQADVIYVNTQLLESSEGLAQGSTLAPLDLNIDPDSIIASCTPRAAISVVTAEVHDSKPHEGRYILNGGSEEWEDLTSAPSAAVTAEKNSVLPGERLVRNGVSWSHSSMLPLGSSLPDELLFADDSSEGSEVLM
Text: as §1, §2

[3] = molecular target: CSF1R (Ba/F3 cells) (Homo sapiens, UniProt P07333); assay: BaF3 viability assay, CSF1R-dependent cells; conditions: read-out: Cellular CSF1R activity by Ba/F3 assay (IC50)
Text: as §1, §2

Measured: GI50

Sequence of CSF1R (Ba/F3 cells) (P07333 whole entry, change not shown): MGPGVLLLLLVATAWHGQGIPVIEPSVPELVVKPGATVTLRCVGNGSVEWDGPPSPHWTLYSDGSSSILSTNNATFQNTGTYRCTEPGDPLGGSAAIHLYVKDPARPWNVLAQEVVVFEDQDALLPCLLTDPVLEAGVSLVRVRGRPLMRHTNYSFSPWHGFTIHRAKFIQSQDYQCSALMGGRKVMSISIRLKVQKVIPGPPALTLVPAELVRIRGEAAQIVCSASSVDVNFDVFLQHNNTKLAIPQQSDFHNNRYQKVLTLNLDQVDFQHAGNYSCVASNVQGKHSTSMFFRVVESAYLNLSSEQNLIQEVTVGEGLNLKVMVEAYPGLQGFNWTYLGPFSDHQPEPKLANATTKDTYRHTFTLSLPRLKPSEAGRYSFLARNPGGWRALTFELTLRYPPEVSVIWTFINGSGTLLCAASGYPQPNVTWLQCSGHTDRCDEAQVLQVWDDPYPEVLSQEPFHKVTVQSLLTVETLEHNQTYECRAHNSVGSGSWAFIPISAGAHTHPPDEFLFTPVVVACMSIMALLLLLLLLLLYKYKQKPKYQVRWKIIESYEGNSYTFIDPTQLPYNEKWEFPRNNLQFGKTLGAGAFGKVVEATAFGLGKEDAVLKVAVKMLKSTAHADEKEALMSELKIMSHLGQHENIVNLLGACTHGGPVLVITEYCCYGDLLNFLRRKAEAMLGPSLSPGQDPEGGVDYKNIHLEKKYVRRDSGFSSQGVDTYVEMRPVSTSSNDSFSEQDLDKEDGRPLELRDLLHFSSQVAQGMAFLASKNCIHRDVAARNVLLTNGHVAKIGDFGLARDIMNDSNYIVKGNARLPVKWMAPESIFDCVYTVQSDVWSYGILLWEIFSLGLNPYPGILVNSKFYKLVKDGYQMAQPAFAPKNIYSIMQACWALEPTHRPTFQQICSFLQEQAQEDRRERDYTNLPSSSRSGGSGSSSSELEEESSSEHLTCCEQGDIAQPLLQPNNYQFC

CCn1cc(OCC(F)(F)F)c(C(=O)Nc2ccc(Oc3ccnc4cc(OC)c(OC)cc34)cn2)n1 [Compound 4]
< 1 µM: all assays above

CCCn1cc(OCC(F)(F)F)c(C(=O)Nc2ccc(Oc3ccnc4cc(OC)c(OC)cc34)cn2)n1 [Compound 7]
< 1 µM: all assays above

COCCn1cc(OCC(F)(F)F)c(C(=O)Nc2ccc(Oc3ccnc4cc(OC)c(OC)cc34)cn2)n1 [Compound 10]
< 1 µM: all assays above

CCCn1cc(OCC(F)F)c(C(=O)Nc2ccc(Oc3ccnc4cc(OC)c(OC)cc34)cn2)n1 [Compound 12]
< 1 µM: all assays above

COc1cc2nccc(Oc3ccc(NC(=O)c4n[nH]cc4OCC(F)(F)F)nc3)c2cc1OC [Compound 16]
< 1 µM: all assays above
